One series concerns HIV-1 (IIIB). The experiment in a line: Antiviral assay in MT-4 cells (HIV MT-4 antiviral assay). The format is cell-based. To be noted: Human immunodeficiency virus 1, IIIB, MT4, 120 h, HIV-1 (IIIB) in MT-4 cells, 5 days incubation; read-out: EC50. As for the experimental part:
Compounds were tested in a high-throughput 384-well assay format for their ability to inhibit the replication of HIV-1 (IIIB) in MT-4 cells. Compounds were serially diluted (1:3) in DMSO on 384-well polypropylene plates and further diluted 200-fold into complete RPMI media (10% FBS, 1% P/S) using the Biotek Micro Flow and Labcyte ECHO acoustic dispenser. Each plate contained up to 8 test compounds, with negative (No Drug Control) and 5 μM AZT positive controls. MT-4 cells were pre-infected with 10 μL of either RPMI (mock-infected) or a fresh 1:250 dilution of HIV-1 IIIB concentrated virus stock. Infected and uninfected MT-4 cells were further diluted in complete RPMI media and added to each plate using a Micro Flow dispenser. After 5 days incubation in a humidified and temperature controlled incubator (37° C.), Cell Titer Glo (Promega) was added to the assay plates and chemiluminescence read using an Envision plate-reader.

Series [1] can be described thus: Cytotoxicity assay in MT-4 cells. Type of series: cell-based, human. The conditions noted are these: human, uninfected MT-4 cells, 5 days incubation; read-out: CC50. The procedure: Each plate contained up to 8 test compounds, with negative (No Drug Control) and 5 μM AZT positive controls. MT-4 cells were pre-infected with 10 μL of either RPMI (mock-infected) or a fresh 1:250 dilution of HIV-1 IIIB concentrated virus stock. Infected and uninfected MT-4 cells were further diluted in complete RPMI media and added to each plate using a Micro Flow dispenser. After 5 days incubation in a humidified and temperature controlled incubator (37° C.), Cell Titer Glo (Promega) was added to the assay plates and chemiluminescence read using an Envision plate-reader. […] Assays were performed as above except uninfected MT-4 cells were added to each well containing test compound. In addition, 10 μM puromycin was added to the last column of each assay plate to assess a base level of cytotoxicity.

With `O=C(NCc1c(F)cc(F)cc1F)c1cn2c(c(O)c1=O)C(=O)N1CCc3ccccc3[C@@H]2C1` (single isomer, unassigned) [Example 63-2], in the series on HIV-1 (IIIB), the half-maximal effective concentration (EC50) was determined as 8.14 nM. The CC50 at 5 days in series [1] amounted to 14300 nM.

As for `O=C(NCc1c(F)cc(F)cc1F)c1cn2c(c(O)c1=O)C(=O)N1CCCC2CC1` (racemic) [Example 24, 11-hydroxy-1,10-dioxo-N-(2,4,6-trifluorobenzyl)-1,3,4,5,6,10-hexahydro-2,6-ethanopyrido[1,2-a][1,4]diazocine-9-carboxamide], the 50% effective concentration (EC50) with HIV-1 (IIIB) was determined as 27.3 nM. In addition, in series [1], the half-maximal cytotoxic concentration (CC50) at 5 days was determined as 13800 nM.

As to `O=C(NCc1ccc(F)cc1F)c1cn2c(c(O)c1=O)C(=O)N1CCc3cc(Cl)ccc3[C@H]2C1` [Example 140-1, (13S)-10-chloro-N-(2,4-difluorobenzyl)-4-hydroxy-3,5-dioxo-3,5,8,13-tetrahydro-7H-6,13-methanobenzo[g]pyrido[1,2-a][1,4]diazonine-2-carboxamide], in the series on HIV-1 (IIIB), the EC50 was 24.1 nM. In series [1], the CC50 at 5 days stood at 14600 nM.

Take `O=C(NCc1ccc(F)cc1F)c1cn2c(c(O)c1=O)C(=O)N1CCCC(F)C2C1` (stereo not shown) [Example 13, N-(2,4-difluorobenzyl)-6-fluoro-12-hydroxy-1,11-dioxo-1,4,5,6,7,11-hexahydro-3H-2,7-methanopyrido[1,2-a][1,4]diazonine-10-carboxamide]: in the series on HIV-1 (IIIB), the EC50 worked out at 1.3 nM. Also, the CC50 at 5 days in series [1] was 17200 nM.

In the case of `CC1(F)CCCN2CC1n1cc(C(=O)NCc3ccc(F)cc3F)c(=O)c(O)c1C2=O` (single isomer, unassigned) [Example 17-1a, N-(2,4-difluorobenzyl)-6-fluoro-12-hydroxy-6-methyl-1,11-dioxo-1,4,5,6,7,11-hexahydro-3H-2,7-methanopyrido[1,2-a][1,4]diazonine-10-carboxamide], the EC50 with HIV-1 (IIIB) was found to be 1.5 nM. The 50% cytotoxic concentration (CC50) at 5 days in series [1] was 12900 nM.

Take `O=C(NCc1ccc(F)cc1F)c1cn2c(c(O)c1=O)C(=O)N1C(=O)C2CCc2ccccc21` (stereo not shown) [Example 27, N-(2,4-difluorobenzyl)-7-hydroxy-6,8,15-trioxo-6,8,13,14-tetrahydro-12H-5,12-methanobenzo[e]pyrido[1,2-a][1,4]diazonine-9-carboxamide]: in the series on HIV-1 (IIIB), the EC50 is above 100 nM. In series [1], the CC50 at 5 days worked out at 10900 nM.

As to `O=C(NCc1c(F)cc(F)cc1F)c1cn2c(c(O)c1=O)C(=O)N1CCCC2CC1` (single isomer, unassigned) [Example 24-1, 11-hydroxy-1,10-dioxo-N-(2,4,6-trifluorobenzyl)-1,3,4,5,6,10-hexahydro-2,6-ethanopyrido[1,2-a][1,4]diazocine-9-carboxamide], the EC50 in the series with HIV-1 (IIIB) was determined as 10.3 nM. Further, the CC50 at 5 days in series [1] amounted to 13600 nM.

On to `O=C(NCc1ccc(F)c(Cl)c1F)c1cn2c(c(O)c1=O)C(=O)N1C[C@H]2CCc2ccc(F)cc21` [Example 90-1, (12R)—N-(3-chloro-2,4-difluorobenzyl)-3-fluoro-7-hydroxy-6,8-dioxo-6,8,13,14-tetrahydro-12H-5,12-methanobenzo[e]pyrido[1,2-a][1,4]diazonine-9-carboxamide], for which, in the series with HIV-1 (IIIB), the EC50 came to 24.1 nM. In addition, the 50% cytotoxic concentration (CC50) at 5 days in series [1] was above 32600 nM.

Consider `O=C(NCc1c(F)cc(F)cc1F)c1cn2c(c(O)c1=O)C(=O)N1CC2CCc2sccc21` (stereo in doubt) [Example 104-2, (11S)-6-hydroxy-5,7-dioxo-N-(2,4,6-trifluorobenzyl)-5,7,12,13-tetrahydro-11H-4,11-methanopyrido[1,2-a]thieno[3,2-e][1,4]diazonine-8-carboxamide], for which the EC50 in the series on HIV-1 (IIIB) stood at 35.3 nM. Besides, the CC50 at 5 days in series [1] came out at 14000 nM.

As for `O=C(NCc1c(F)cc(F)cc1F)c1cn2c(c(O)c1=O)C(=O)N1CCSC[C@H]2C1` [Example 155-2, (7R)-12-hydroxy-1,11-dioxo-N-(2,4,6-trifluorobenzyl)-1,3,4,6,7,11-hexahydro-2,7-methanopyrido[1,2-d][1,4,7]thiadiazonine-10-carboxamide], the EC50 in the series with HIV-1 (IIIB) worked out at 4.43 nM. For the same compound, in series [1], the CC50 at 5 days is above 41300 nM.

For the compound `O=C(NCc1c(F)cc(F)cc1F)c1cn2c(c(O)c1=O)C(=O)N1C[C@H]2CCc2ccc(F)cc21` [Example 86-1, (12R)-3-fluoro-7-hydroxy-6,8-dioxo-N-(2,4,6-trifluorobenzyl)-6,8,13,14-tetrahydro-12H-5,12-methanobenzo[e]pyrido[1,2-a][1,4]diazonine-9-carboxamide], the EC50 in the series with HIV-1 (IIIB) is 27 nM. Besides, the CC50 at 5 days in series [1] is above 30300 nM.

Turning to `O=C(NCc1ccc(F)cc1F)c1cn2c(c(O)c1=O)C(=O)N1CCCC(O)C2C1` (stereo not shown) [Example 12, N-(2,4-difluorobenzyl)-6,12-dihydroxy-1,11-dioxo-1,4,5,6,7,11-hexahydro-3H-2,7-methanopyrido[1,2-a][1,4]diazonine-10-carboxamide], the EC50 in the series on HIV-1 (IIIB) came out at 4.1 nM. In series [1], the CC50 at 5 days is above 50000 nM.

For the compound `C[C@@]1(O)CCN2C[C@H](C1)n1cc(C(=O)NCc3c(F)cc(F)cc3F)c(=O)c(O)c1C2=O` [Example 107-2, (5R,7S)-5,12-dihydroxy-5-methyl-1,11-dioxo-N-(2,4,6-trifluorobenzyl)-1,4,5,6,7,11-hexahydro-3H-2,7-methanopyrido[1,2-a][1,4]diazonine-10-carboxamide], the EC50 in the series with HIV-1 (IIIB) came out at 12.1 nM. Also, the 50% cytotoxic concentration (CC50) at 5 days in series [1] is above 50000 nM.

In the case of `O=C(NCc1ccc(F)c(Cl)c1F)c1cn2c(c(O)c1=O)C(=O)N1Cc3cc(F)c(F)cc3C[C@H]2C1` [Example 139-2, (6S)—N-(3-chloro-2,4-difluorobenzyl)-9,10-difluoro-1-hydroxy-2,14-dioxo-2,7,12,14-tetrahydro-6H-6,13-methanobenzo[f]pyrido[1,2-a][1,4]diazonine-3-carboxamide], the concentration for a half-maximal effect (EC50) in the series on HIV-1 (IIIB) turned out to be 9.11 nM. Also, in series [1], the CC50 at 5 days is above 50000 nM.

`O=C(NCc1c(F)cc(F)cc1F)c1cn2c(c(O)c1=O)C(=O)N1CCCC(O)C2C1` (stereo not shown) [Example 11, 6,12-dihydroxy-1,11-dioxo-N-(2,4,6-trifluorobenzyl)-1,4,5,6,7,11-hexahydro-3H-2,7-methanopyrido[1,2-a][1,4]diazonine-10-carboxamide]: the EC50 with HIV-1 (IIIB) amounted to 7.2 nM. In addition, the CC50 at 5 days in series [1] is above 50000 nM.

For `CS(=O)(=O)N1CCN2CC(C1)n1cc(C(=O)NCc3ccc(F)cc3F)c(=O)c(O)c1C2=O` (stereo not shown) [Example 32, N-(2,4-difluorobenzyl)-12-hydroxy-5-(methylsulfonyl)-1,11-dioxo-1,4,5,6,7,11-hexahydro-3H-2,7-methanopyrido[1,2-a][1,4,7]triazonine-10-carboxamide], the EC50 with HIV-1 (IIIB) was above 100 nM. Also, the CC50 at 5 days in series [1] was above 50000 nM.

Take `CN1CCN2CC(C1)n1cc(C(=O)NCc3ccc(F)cc3F)c(=O)c(O)c1C2=O` (stereo not shown) [Example 33, N-(2,4-difluorobenzyl)-12-hydroxy-5-methyl-1,11-dioxo-1,4,5,6,7,11-hexahydro-3H-2,7-methanopyrido[1,2-a][1,4,7]triazonine-10-carboxamide]: the EC50 with HIV-1 (IIIB) amounted to 7 nM. In series [1], the 50% cytotoxic concentration (CC50) at 5 days was above 50000 nM.

Consider `Cc1noc2c1CN1C[C@H](C2)n2cc(C(=O)NCc3c(F)cc(F)cc3F)c(=O)c(O)c2C1=O` (single isomer, unassigned) [Example 135-1], for which the EC50 in the series with HIV-1 (IIIB) is 3.36 nM. For the same compound, the 50% cytotoxic concentration (CC50) at 5 days in series [1] was above 50000 nM.

In the case of `CC12CCCCN(C1)C(=O)c1c(O)c(=O)c(C(=O)NCc3c(F)cc(F)cc3F)cn12` (stereo not shown) [Example 18, 12-hydroxy-7-methyl-1,11-dioxo-N-(2,4,6-trifluorobenzyl)-1,4,5,6,7,11-hexahydro-3H-2,7-methanopyrido[1,2-a][1,4]diazonine-10-carboxamide], the concentration for a half-maximal effect (EC50) in the series with HIV-1 (IIIB) came to 1.4 nM. In series [1], the 50% cytotoxic concentration (CC50) at 5 days is 29400 nM.

Regarding `Cn1ncc2c1C[C@H]1CN(C2)C(=O)c2c(O)c(=O)c(C(=O)NCc3c(F)cc(F)cc3F)cn21` [Example 87-2, (12S)-7-hydroxy-1-methyl-6,8-dioxo-N-(2,4,6-trifluorobenzyl)-1,4,6,8,12,13-hexahydro-5,12-methanopyrazolo[4,3-f]pyrido[1,2-a][1,4]diazonine-9-carboxamide], the half-maximal effective concentration (EC50) in the series on HIV-1 (IIIB) is 1.74 nM. Besides, the CC50 at 5 days in series [1] was above 50000 nM.

Turning to `CO[C@H]1CCN2C[C@H](C1)n1cc(C(=O)NCc3c(F)cc(F)cc3F)c(=O)c(O)c1C2=O` [Example 103-2, (5S,7S)-12-hydroxy-5-methoxy-1,11-dioxo-N-(2,4,6-trifluorobenzyl)-1,4,5,6,7,11-hexahydro-3H-2,7-methanopyrido[1,2-a][1,4]diazonine-10-carboxamide], the concentration for a half-maximal effect (EC50) with HIV-1 (IIIB) came to 9.2 nM. The half-maximal cytotoxic concentration (CC50) at 5 days in series [1] was above 50000 nM.

Turning to `O=C(NCc1ccc(F)cc1F)c1cn2c(c(O)c1=O)C(=O)N1C[C@@H]2CCc2ccccc21` (single isomer, unassigned) [Example 37-2], the 50% effective concentration (EC50) with HIV-1 (IIIB) came out at 1.2 nM. The cytotoxic concentration (CC50) at 5 days in series [1] is 12900 nM.

For `O=C(NCc1ccc(F)cc1F)c1cn2c(c(O)c1=O)C(=O)N1CCCOCC2C1` (racemic) [rac-1, N-(2,4-Difluorobenzyl)-13-hydroxy-1,12-dioxo-1,4,5,7,8,12-hexahydro-3H-2,8-methanopyrido[1,2-d][1,4,7]oxadiazecine-11-carboxamide], the 50% effective concentration (EC50) with HIV-1 (IIIB) turned out to be 3.9 nM. In addition, the CC50 at 5 days in series [1] is above 47900 nM.

For the origin of these results see US12227520B2 (priority 2019, dated 2025).
